Measurements reported in ChEMBL document CHEMBL4261543, “Integrating docking scores and key interaction profiles to improve the accuracy of molecular docking: towards novel B-RafV600E inhibitors” (Medchemcomm, 2017).
pIC50: −log10 of the molar value.

Experiments:
[1] = tested on: Serine/threonine-protein kinase B-raf (Homo sapiens), P15056 [V600E]; assay: Inhibition of B-Raf V600E mutant (unknown origin) at 10 uM using fluorescein-MAP2K1 as substrate after 1 hr by electrophoretic assay relative to control
Chain of Serine/threonine-protein kinase B-raf (Homo sapiens), P15056 [V600E] (P15056 whole entry V600E): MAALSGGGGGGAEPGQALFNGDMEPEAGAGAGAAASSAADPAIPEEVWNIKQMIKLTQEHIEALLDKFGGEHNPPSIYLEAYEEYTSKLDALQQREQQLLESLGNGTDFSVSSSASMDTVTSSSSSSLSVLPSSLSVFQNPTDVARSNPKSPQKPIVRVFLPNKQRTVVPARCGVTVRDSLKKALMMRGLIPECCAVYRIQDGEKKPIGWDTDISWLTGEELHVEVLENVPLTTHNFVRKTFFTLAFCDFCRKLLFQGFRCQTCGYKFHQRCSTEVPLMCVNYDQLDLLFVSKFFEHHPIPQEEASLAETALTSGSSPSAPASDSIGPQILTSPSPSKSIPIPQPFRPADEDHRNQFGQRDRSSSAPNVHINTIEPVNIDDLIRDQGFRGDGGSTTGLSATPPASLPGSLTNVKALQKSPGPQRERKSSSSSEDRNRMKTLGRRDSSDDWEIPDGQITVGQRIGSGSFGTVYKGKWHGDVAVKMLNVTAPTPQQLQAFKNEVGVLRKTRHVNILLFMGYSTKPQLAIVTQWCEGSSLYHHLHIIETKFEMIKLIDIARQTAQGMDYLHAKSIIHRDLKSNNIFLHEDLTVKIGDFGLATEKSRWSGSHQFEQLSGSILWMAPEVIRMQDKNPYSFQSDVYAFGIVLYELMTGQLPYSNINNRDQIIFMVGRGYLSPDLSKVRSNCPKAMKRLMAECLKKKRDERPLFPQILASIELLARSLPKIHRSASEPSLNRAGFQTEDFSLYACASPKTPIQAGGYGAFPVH

[2] = biological target: Serine/threonine-protein kinase B-raf (Homo sapiens, UniProt P15056, V600E); assay: Inhibition of B-Raf V600E mutant (unknown origin) using fluorescein-MAP2K1 as substrate after 1 hr by electrophoretic assay
Chain of Serine/threonine-protein kinase B-raf (P15056 2-766 V600E limits assumed): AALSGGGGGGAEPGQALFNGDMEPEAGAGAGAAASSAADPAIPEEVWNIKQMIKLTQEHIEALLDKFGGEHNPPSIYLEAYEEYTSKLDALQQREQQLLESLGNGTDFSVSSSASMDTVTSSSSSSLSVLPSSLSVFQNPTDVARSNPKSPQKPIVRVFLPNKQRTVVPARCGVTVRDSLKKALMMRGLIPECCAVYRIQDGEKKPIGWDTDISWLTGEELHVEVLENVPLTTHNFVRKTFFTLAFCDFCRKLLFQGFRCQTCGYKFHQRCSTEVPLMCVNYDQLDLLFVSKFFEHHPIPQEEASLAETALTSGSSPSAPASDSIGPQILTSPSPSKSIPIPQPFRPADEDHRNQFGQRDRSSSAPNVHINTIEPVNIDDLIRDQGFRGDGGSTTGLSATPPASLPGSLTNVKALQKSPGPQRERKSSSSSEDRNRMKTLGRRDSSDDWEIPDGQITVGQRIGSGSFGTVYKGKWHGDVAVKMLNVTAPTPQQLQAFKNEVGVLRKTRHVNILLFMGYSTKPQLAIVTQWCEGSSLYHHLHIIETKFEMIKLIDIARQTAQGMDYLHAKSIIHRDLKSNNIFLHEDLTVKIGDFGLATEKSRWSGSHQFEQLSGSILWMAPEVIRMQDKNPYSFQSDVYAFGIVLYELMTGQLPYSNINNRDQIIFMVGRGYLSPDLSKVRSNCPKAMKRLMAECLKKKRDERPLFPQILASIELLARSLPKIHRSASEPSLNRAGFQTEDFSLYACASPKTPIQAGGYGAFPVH

| inhibition [1] [%] | pIC50 [2] | SMILES |
| --- | --- | --- |
| > 40 |  | CC(=O)Nc1ccc(Nc2ncc3cc(-c4ccncc4)ccc3n2)cc1 |
| > 40 |  | CCCS(=O)(=O)Nc1ccc(F)c(C(=O)c2c[nH]c3ncc(-c4ccc(Cl)cc4)cc23)c1F |
| > 40 |  | CCCS(=O)(=O)Nc1ccc(F)c(NC(=O)c2csc3c(N)ncnc23)c1F |
| > 40 |  | CC(C)c1nc(-c2ccc(F)c(NS(=O)(=O)c3c(F)cccc3F)c2)c(-c2ccnc(Nc3ccc(N4CCOCC4)nc3)n2)s1 |
| > 40 |  | CC(=O)N(C)c1ccc(Nc2ncc3cc(-c4ccncc4)ccc3n2)cc1 |
| > 40 |  | CC(C)c1nc(-c2ccc(F)c(NS(=O)(=O)c3c(F)cccc3F)c2)c(-c2ccnc(NCCS(C)(=O)=O)n2)s1 |
| > 40 |  | CCCS(=O)(=O)Nc1ccc(F)c(NC(=O)Nc2ncnc3[nH]ncc23)c1F |
| > 40 |  | CCCS(=O)(=O)Nc1ccc(F)c(-c2cc3cnc(NCCCO)nc3n(C)c2=O)c1F |
| > 40 |  | C[C@@H](NC(=O)[C@H]1CCCCN1C)c1ccc(Nc2ncc3cc(-c4ccncc4)ccc3n2)cc1 |
| > 40 | 8.20 | CCCS(=O)(=O)Nc1ccc(Cl)c(C(=O)Nc2cnc3[nH]ccc3c2)c1F |
| > 40 |  | CCCS(=O)(=O)Nc1ccc(F)c(-c2cc3cnc(Nc4ccccc4)nc3n(C)c2=O)c1F |
| > 40 |  | CCCS(=O)(=O)Nc1ccc(F)c(-c2cc3cnc(NC4CCOCC4)nc3n(C)c2=O)c1F |
| > 40 |  | CC(C)c1nc(-c2cccc(NS(=O)(=O)c3c(F)cccc3F)c2)c(-c2ccnc(N)n2)s1 |
| > 40 |  | c1cc(-c2ccc3nc(Nc4ccc(OCCN5CCCC5)cc4)ncc3c2)ccn1 |
| > 40 |  | COCCNC(=O)c1ccc(Nc2ncc3cc(-c4ccncc4)ccc3n2)cc1F |
| > 40 |  | CCCS(=O)(=O)Nc1ccc(F)c(-c2cc3cnc(Nc4cnn(C)c4)nc3n(C)c2=O)c1F |
| > 40 |  | COCCNC(=O)c1ccc(Nc2ncc3cc(-c4ccc(OC)nc4)ccc3n2)cc1 |
| > 40 |  | C[C@@H](NC1=CC(=O)CNC1)c1ccc(Nc2ncc3cc(-c4ccncc4)ccc3n2)cc1 |
| > 40 |  | CCCS(=O)(=O)Nc1ccc(F)c(NC(=O)N(C)c2cc(N)ncn2)c1F |
| > 40 | 7.21 | CCCS(=O)(=O)Nc1ccc(F)c(C(=O)Nc2cnc3[nH]cnc3c2)c1C |
| > 40 |  | CCCS(=O)(=O)Nc1ccc(F)c(NC(=O)Nc2cc(N)ncn2)c1F |
| > 40 |  | C[C@@H](NC(=O)[C@H]1CCCCN1CCO)c1ccc(Nc2ncc3cc(-c4ccncc4)ccc3n2)cc1 |
| > 40 |  | CC(C)(C)c1nc(-c2cccc(NS(=O)(=O)c3c(F)cccc3F)c2F)c(-c2ccnc(N)n2)s1 |

| inhibition [1] [%] | pIC50 [2] | SMILES |
| --- | --- | --- |
| > 40 | 7.92 | CCCS(=O)(=O)Nc1ccc(F)c(C(=O)Nc2cnc3[nH]cc(C)c3c2)c1F |
| > 40 | 8.77 | CCCS(=O)(=O)Nc1ccc(Cl)c(C(=O)Nc2cnc3[nH]cc(OC)c3c2)c1F |
| > 40 |  | CCCS(=O)(=O)Nc1ccc(F)c(-c2cc3cnc(Nc4cccnc4)nc3n(C)c2=O)c1F |
| > 40 |  | COCCOc1ccc(Nc2ncc3cc(-c4ccncc4)ccc3n2)cc1 |
| > 40 |  | CCCS(=O)(=O)Nc1ccc(F)c(NC(=O)Nc2ncnc3[nH]nc(OC)c23)c1F |
| > 40 |  | CC(=O)N[C@H](C)c1ccc(Nc2ncc3cc(-c4ccncc4)cc(Cl)c3n2)cc1 |
| > 40 | 8.09 | CCCS(=O)(=O)Nc1ccc(F)c(C(=O)Nc2cnc3[nH]cc(N(C)C)c3c2)c1F |
| > 40 |  | CC(=O)N[C@H](C)c1ccc(Nc2ncc3cc(-c4ccncc4)c(C)cc3n2)cc1 |
| > 40 |  | CN1CCCC1CCNC(=O)c1ccc(Nc2ncc3cc(-c4ccncc4)ccc3n2)cc1 (stereo unspecified) |
| > 40 |  | CCCS(=O)(=O)Nc1ccc(F)c(-c2cc3cnc(NC)nc3n(C)c2=O)c1F |
| > 40 | 8.32 | CCCS(=O)(=O)Nc1ccc(F)c(C(=O)Nc2cnc3[nH]cc(OC)c3c2)c1F |
| > 40 |  | CCCS(=O)(=O)Nc1ccc(F)c(-c2ccc3cc(N)ncc3c2)c1F |
| > 40 |  | CCCS(=O)(=O)Nc1ccc(C)c(-c2ccc3nc(N)ncc3c2)c1 |
| > 40 |  | CC(C)c1nc(-c2cccc(NS(=O)(=O)c3c(F)cccc3F)c2)c(-c2ccnc(NCCS(C)(=O)=O)n2)s1 |
| > 40 | 7.42 | CCCS(=O)(=O)Nc1ccc(F)c(C(=O)Nc2cnc3[nH]ccc3c2)c1C |
| > 40 |  | COCCNC(=O)c1ccc(Nc2ncc3cc(-c4cncnc4)ccc3n2)cc1 |
| > 40 |  | COCCNC(=O)c1ccc(Nc2ncc3cc(-c4ccccc4)ccc3n2)cc1 |
| > 40 |  | C[C@@H](NC(=O)C1CCNCC1)c1ccc(Nc2ncc3cc(-c4ccncc4)ccc3n2)cc1 |
| > 40 |  | CCCS(=O)(=O)Nc1ccc(F)c(C(=O)Nc2cnc3[nH]nc(OC)c3c2)c1F |
| > 40 |  | CCCS(=O)(=O)Nc1ccc(F)c(-c2ccc3ccncc3n2)c1F |
| > 40 |  | CCCS(=O)(=O)Nc1ccc(F)c(-c2cc3cncc(Br)c3cn2)c1F |
| > 40 |  | COCCNC(=O)c1ccc(Nc2ncc3cc(-c4ccncc4OC)ccc3n2)cc1 |
| > 40 |  | COCCNC(=O)c1ccc(Nc2ncc3cc(-c4ccnc(C)c4)ccc3n2)cc1 |

| inhibition [1] [%] | pIC50 [2] | SMILES |
| --- | --- | --- |
| > 40 |  | CCCS(=O)(=O)Nc1ccc(F)c(NC(=O)Nc2cc(NC)ncn2)c1F |
| > 40 |  | Nc1ncnc2c(C(=O)Nc3c(Cl)ccc(NS(=O)(=O)CCCF)c3F)csc12 |
| > 40 |  | CC(C)(C)c1nc(-c2cccc(NS(=O)(=O)c3cc(F)ccc3F)c2)c(-c2ccnc(N)n2)s1 |
| > 40 |  | CCCS(=O)(=O)Nc1ccc(F)c(-c2cc3cnccc3n(CCc3ccccc3)c2=O)c1F |
| > 40 |  | COCCNC(=O)c1ccc(Nc2ncc3cc(-c4ccncc4Cl)ccc3n2)cc1 |
| > 40 |  | CC(C)c1nc(-c2cccc(NS(=O)(=O)c3cccc(F)c3)c2)c(-c2ccnc(NCC(N)=O)n2)s1 |
| > 40 |  | CCCS(=O)(=O)Nc1ccc(F)c(-c2ccc3nc(N)ncc3c2)c1F |
| > 40 |  | CCCS(=O)(=O)Nc1ccc(F)c(-c2cc3cnccc3cn2)c1F |
| > 40 |  | CCCS(=O)(=O)Nc1ccc(F)c(-c2cc3cnc(NCC4CC4)nc3n(C)c2=O)c1F |
| > 40 |  | CCCS(=O)(=O)Nc1ccc(F)c(-c2ccc3ccncc3c2)c1F |
| > 40 |  | CN(C)CCNC(=O)c1ccc(Nc2ncc3cc(-c4ccncc4)ccc3n2)cc1 |
| > 40 |  | COCCNC(=O)c1ccc(Nc2ncc3cc(-c4ccncc4C)ccc3n2)cc1 |
| > 40 |  | CCCS(=O)(=O)Nc1ccc(F)c(-c2cc3cnccc3c(=O)n2C)c1F |
| > 40 |  | CCCS(=O)(=O)Nc1ccc(F)c(NC(=O)c2cccc3c(N)ncnc23)c1F |
| > 40 | 8.40 to 8.47 | CCCS(=O)(=O)Nc1ccc(F)c(C(=O)Nc2cnc3[nH]cc(Br)c3c2)c1F |
| > 40 |  | CC(C)c1nc(-c2cccc(NS(=O)(=O)c3cccc(F)c3)c2)c(-c2ccnc(NCCCN(C)C)n2)s1 |
| > 40 |  | CCCS(=O)(=O)Nc1ccc(F)c(-c2cc3cnc(N)nc3n(C)c2=O)c1F |
| > 40 |  | CCCS(=O)(=O)Nc1ccc(F)c(-c2cc3cnc(NCCO)nc3n(C)c2=O)c1F |
| > 40 | 7.77 | CCCS(=O)(=O)Nc1ccc(F)c(C(=O)Nc2cnc3[nH]ccc3c2)c1F |
| > 40 |  | O=C(NCCN1CCCC1)c1ccc(Nc2ncc3cc(-c4ccncc4)ccc3n2)cc1 |
| > 40 |  | COCCNC(=O)c1ccc(Nc2ncc3cc(-c4cccnc4)ccc3n2)cc1 |
| > 40 |  | COCCNC(=O)c1ccc(Nc2ncc3cc(-c4ccc(F)nc4)ccc3n2)cc1 |

| SMILES | inhibition [1] [%] | pIC50 [2] |
| --- | --- | --- |
| CCCS(=O)(=O)Nc1ccc(Cl)c(NC(=O)c2csc3c(N)ncnc23)c1F | > 40 |  |
| CCCS(=O)(=O)Nc1ccc(F)c(NC(=O)c2csc3c(N)ncnc23)c1Cl | > 40 |  |
| CCCS(=O)(=O)Nc1ccc(F)c(NC(=O)c2cccc3c(N)ncnc23)c1Cl | > 40 |  |
| O=c1c(O)c(-c2ccc(O)c(O)c2)oc2cc(O)cc(O)c12 [QUERCETIN] |  | 5.12 |
| CCCS(=O)(=O)Nc1ccc(Cl)c(NC(=O)c2cccc3c(N)ncnc23)c1F | > 40 |  |
| O=c1c(O)c(-c2cc(O)c(O)c(O)c2)oc2cc(O)cc(O)c12 [MYRICETIN] |  | 5.81 |
| CCCS(=O)(=O)Nc1ccc(F)c(C(=O)Nc2ccc(N)nc2)c1F | > 40 | 6.04 |
| Nc1ncnc2c(C(=O)Nc3c(Cl)ccc(NS(=O)(=O)CCCF)c3F)cccc12 | > 40 |  |
